The values that follow are results of earlier work, collected in patent US8772510B2, “PDE10 modulators” (Hoffmann-La Roche Inc., priority 2011, dated 2014).

The structures appear in SMILES notation.

For this data set, the target named is PDE10A (Rattus norvegicus (Rat), UniProt Q9QYJ6). The settings on record: rats, sub-chronic treatment with PCP; Rodefer et al. 2005.
Sequence of PDE10A (Q9QYJ6 whole entry): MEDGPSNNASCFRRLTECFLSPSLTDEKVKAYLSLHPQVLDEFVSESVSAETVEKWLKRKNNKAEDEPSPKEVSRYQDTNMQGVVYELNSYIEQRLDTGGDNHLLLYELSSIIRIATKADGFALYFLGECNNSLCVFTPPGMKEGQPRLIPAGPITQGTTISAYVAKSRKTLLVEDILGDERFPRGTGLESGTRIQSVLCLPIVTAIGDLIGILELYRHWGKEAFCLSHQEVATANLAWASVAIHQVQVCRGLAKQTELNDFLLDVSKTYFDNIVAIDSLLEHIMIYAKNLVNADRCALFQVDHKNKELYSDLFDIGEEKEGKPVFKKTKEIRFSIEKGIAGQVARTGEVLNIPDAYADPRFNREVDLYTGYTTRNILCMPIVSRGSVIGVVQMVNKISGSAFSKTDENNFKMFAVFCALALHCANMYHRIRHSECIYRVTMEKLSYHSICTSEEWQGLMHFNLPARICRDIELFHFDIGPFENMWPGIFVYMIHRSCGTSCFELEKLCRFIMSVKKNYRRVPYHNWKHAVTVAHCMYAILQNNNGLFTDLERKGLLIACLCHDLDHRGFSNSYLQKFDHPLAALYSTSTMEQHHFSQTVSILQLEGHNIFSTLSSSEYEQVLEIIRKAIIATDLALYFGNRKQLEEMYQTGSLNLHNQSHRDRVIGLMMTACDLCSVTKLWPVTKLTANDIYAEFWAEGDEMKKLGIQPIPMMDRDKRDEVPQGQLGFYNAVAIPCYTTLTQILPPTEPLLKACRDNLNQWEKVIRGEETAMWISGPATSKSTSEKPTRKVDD

With `COc1ccc(Cc2nccc3cc(OC)c(OC)cc23)cc1OC` [papaverine, Papaverine], the “deficits in extra-dimensional shift learning” value is listed as “attenuate the deficits in the extra-dimensional shift learning”.
